Measured values taken from PubChem BioAssay AID1918954 (Molecular Pharmacology Branch, DTP, NCI, 2023).

Tested on: MDA-MB-468 complex spheroids with HUVEC/MSC, viability
Assay: Anticancer human tumor MDA-MB-468 cell line growth inhibition;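 also: spheroids exposed to agents for seven days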;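 as to viability, T/C: 100% = DMSO vehicle control viability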
Settings: for IC50: curve of first compound; for viability, T/C: stronger effect = lower value
In short: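 Multicellular complex spheroids of tumor cells with human endothelial cells (HUVEC) and mesenchymal stem cells; the LSD1 inhibitor iadademstat was combined with standard-of-care or investigational agents. Top concentration at or near clinical Cmax, half-log dilutions; final DMSO ≤0.25%.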

`Nc1ccn(C2OC(CO)C(O)C2(F)F)c(=O)n1` (stereo not given) + NC1CCC(NC2CC2c2ccccc2)CC1 was tested, and the IC50 (second compound 0.1 µM) was < 0.949 nM, the IC50 (second compound 0.316 µM) was < 0.949 nM and the IC50 (second compound 1 µM) was < 0.949 nM. The IC50 (second compound 3.16 µM) was < 0.949 nM, the IC50 (second compound 10 µM) was < 0.949 nM and the viability, T/C (second compound 0.1 µM, first compound 0.000949 µM) was 5.76%. For the same molecule, the viability, T/C (second compound 0.1 µM, first compound 0.003 µM) was 4.85%, the viability, T/C (second compound 0.1 µM, first compound 0.00949 µM) was 5.57% and the viability, T/C (second compound 0.1 µM, first compound 0.03 µM) was 4.54%. It also gave a viability, T/C (second compound 0.1 µM, first compound 0.0949 µM) of 4.56%, a viability, T/C (second compound 0.1 µM, first compound 0.3 µM) of 5.13% and a viability, T/C (second compound 0.316 µM, first compound 0.000949 µM) of 5.33%. The viability, T/C (second compound 0.316 µM, first compound 0.003 µM) was 5.22%, the viability, T/C (second compound 0.316 µM, first compound 0.00949 µM) was 5.23% and the viability, T/C (second compound 0.316 µM, first compound 0.03 µM) was 4.88%. The viability, T/C (second compound 0.316 µM, first compound 0.0949 µM) was 5.47%, the viability, T/C (second compound 0.316 µM, first compound 0.3 µM) was 5.64% and the viability, T/C (second compound 1 µM, first compound 0.000949 µM) was 6.43%. It also gave a viability, T/C (second compound 1 µM, first compound 0.003 µM) of 6.38%, a viability, T/C (second compound 1 µM, first compound 0.00949 µM) of 5.41% and a viability, T/C (second compound 1 µM, first compound 0.03 µM) of 4.34%. It also gave a viability, T/C (second compound 1 µM, first compound 0.0949 µM) of 4.71%, a viability, T/C (second compound 1 µM, first compound 0.3 µM) of 5.55% and a viability, T/C (second compound 3.16 µM, first compound 0.000949 µM) of 6.65%. The viability, T/C (second compound 3.16 µM, first compound 0.003 µM) was 5.98%, the viability, T/C (second compound 3.16 µM, first compound 0.00949 µM) was 5.78% and the viability, T/C (second compound 3.16 µM, first compound 0.03 µM) was 5.89%. The viability, T/C (second compound 3.16 µM, first compound 0.0949 µM) was 4.69%, the viability, T/C (second compound 3.16 µM, first compound 0.3 µM) was 5.66% and the viability, T/C (second compound 10 µM, first compound 0.000949 µM) was 7.63%. For the same molecule, the viability, T/C (second compound 10 µM, first compound 0.003 µM) was 6.29%, the viability, T/C (second compound 10 µM, first compound 0.00949 µM) was 6.52% and the viability, T/C (second compound 10 µM, first compound 0.03 µM) was 7.12%. It also gave a viability, T/C (second compound 10 µM, first compound 0.0949 µM) of 5.35% and a viability, T/C (second compound 10 µM, first compound 0.3 µM) of 5.45%.

In the case of `O=C(c1cc(Cc2n[nH]c(=O)c3ccccc23)ccc1F)N1CCN(C(=O)C2CC2)CC1` + NC1CCC(NC2CC2c2ccccc2)CC1, the IC50 (second compound 0.1 µM) is reported as 775 nM, the IC50 (second compound 0.316 µM) is reported as 812 nM and the IC50 (second compound 1 µM) is reported as 786 nM. The IC50 (second compound 3.16 µM) was 909 nM, the IC50 (second compound 10 µM) was 411 nM and the viability, T/C (second compound 0.1 µM, first compound 0.0316 µM) was 89.5%. For the same molecule, the viability, T/C (second compound 0.1 µM, first compound 0.1 µM) was 103%, the viability, T/C (second compound 0.1 µM, first compound 0.316 µM) was 76.2% and the viability, T/C (second compound 0.1 µM, first compound 1 µM) was 42.6%. The viability, T/C (second compound 0.1 µM, first compound 3.16 µM) was 19.3%, the viability, T/C (second compound 0.1 µM, first compound 10 µM) was 13.6% and the viability, T/C (second compound 0.316 µM, first compound 0.0316 µM) was 93.8%. For the same molecule, the viability, T/C (second compound 0.316 µM, first compound 0.1 µM) was 87.8%, the viability, T/C (second compound 0.316 µM, first compound 0.316 µM) was 71.4% and the viability, T/C (second compound 0.316 µM, first compound 1 µM) was 47.7%. The viability, T/C (second compound 0.316 µM, first compound 3.16 µM) was 18.2%, the viability, T/C (second compound 0.316 µM, first compound 10 µM) was 13.8% and the viability, T/C (second compound 1 µM, first compound 0.0316 µM) was 90.2%. For the same molecule, the viability, T/C (second compound 1 µM, first compound 0.1 µM) was 80.8%, the viability, T/C (second compound 1 µM, first compound 0.316 µM) was 71.7% and the viability, T/C (second compound 1 µM, first compound 1 µM) was 45.2%. For the same molecule, the viability, T/C (second compound 1 µM, first compound 3.16 µM) was 21%, the viability, T/C (second compound 1 µM, first compound 10 µM) was 15.1% and the viability, T/C (second compound 3.16 µM, first compound 0.0316 µM) was 68.4%. The viability, T/C (second compound 3.16 µM, first compound 0.1 µM) was 75.3%, the viability, T/C (second compound 3.16 µM, first compound 0.316 µM) was 77% and the viability, T/C (second compound 3.16 µM, first compound 1 µM) was 47.9%. The viability, T/C (second compound 3.16 µM, first compound 3.16 µM) was 20.8%, the viability, T/C (second compound 3.16 µM, first compound 10 µM) was 17% and the viability, T/C (second compound 10 µM, first compound 0.0316 µM) was 73.9%. It also gave a viability, T/C (second compound 10 µM, first compound 0.1 µM) of 65.8%, a viability, T/C (second compound 10 µM, first compound 0.316 µM) of 53.4% and a viability, T/C (second compound 10 µM, first compound 1 µM) of 38.9%. It also gave a viability, T/C (second compound 10 µM, first compound 3.16 µM) of 23.6% and a viability, T/C (second compound 10 µM, first compound 10 µM) of 18.6%.
